According to patent US20100319073A1, “GDE Compositions and Methods” (The Johns Hopkins University, priority 2005, published 2010):

Test system: clone 45.1 (GDE2)
Assay: Reverse Northern blot of ventral spinal cord explants grown with or without retinol (differential subtraction screen)
Format: cell-based, chick
Details: explants exposed to retinol, compared with GAPDH
Experimental: Ventral neural explants were dissected from brachial level HH St17 chick embryos and cultured as described previously for 18 hours (1). The screen was designed to maximize isolation of genes responsive to motor neuron-derived retinoids however genes responsive to paraxial mesoderm-derived retinoids would also have been included. RNA from 100 explants was isolated using Trizol (GIBCO-BRL). cDNAs were generated and amplified using the Marathon cDNA PCR Amplification kit (Stratagene) and the subtraction procedure carried out using the Stratagene PCR Select Suppression kit. Reverse Northern blot analysis was performed as described in the latter kit.
Spinal motor neuron generation in the chick requires the integration of three different extrinsic signals: sonic hedgehog, fibroblast growth factors, and retinoic acid (RA) (2, 3). All three signaling pathways have been implicated in initial dorsal-ventral patterning of progenitor domains in the spinal cord (FIG. 1A). However, RA signaling is also necessary for the induction of Oligodendrocyte transcription factor 2 (Olig2) in progenitors, and their subsequent differentiation into postmitotic motor neurons (FIG. 1A) (2). […]

CC1=C(/C=C/C(C)=C/C=C/C(C)=C/CO)C(C)(C)CCC1 [retinol]
increase in expression of clone 45.1: approximately 50 fold
